Measurements from article PMC9130233, “An inhibitor of RORγ for chronic pulmonary obstructive disease treatment” (Scientific Reports, 2022).
“And” between values parts separate entries of the source, which are not always exact repeats. Equal entries are not always repeated.

Key:
[1] = test system: IL-17A release in mouse splenocytes; assay: IL-17A release, mouse splenocytes, anti-CD3 + anti-CD28; assay type: cell-based; details: Splenocyte, anti-CD3 + anti-CD28, n = 13, read-out: Cellular activity: Mouse IC50, IL-17A release
Protocol: Inhibition of RORγ by PCCR-1 was also estimated in a functional assay by measuring the inhibition of Th17 dependent cytokine IL-17A release in human peripheral blood mononuclear cells (PBMCs), mouse splenocytes and canine PBMC stimulated with their respective anti-CD3 and anti-CD28 antibodies.
Splenocytes were prepared from 6–8 week old BALB/c mice and cells were seeded in 96-well plates coated with mouse anti-CD3 mAb (10 µg/mL). Cells were treated with test compounds for 30 min followed by stimulation with mouse anti- CD28 mAb (3 µg/mL) for 72 h at 37 °C in 5% CO2 incubator. The supernatant was used for estimating mouse IL-17 by ELISA.

Alpha 1D = biological target: T1, Alpha 1D (Homo sapiens, UniProt P25100); assay: Cerep panel, Alpha 1D
T1 construct: Eurofins Cerep
T1 sequence (P25100 whole entry): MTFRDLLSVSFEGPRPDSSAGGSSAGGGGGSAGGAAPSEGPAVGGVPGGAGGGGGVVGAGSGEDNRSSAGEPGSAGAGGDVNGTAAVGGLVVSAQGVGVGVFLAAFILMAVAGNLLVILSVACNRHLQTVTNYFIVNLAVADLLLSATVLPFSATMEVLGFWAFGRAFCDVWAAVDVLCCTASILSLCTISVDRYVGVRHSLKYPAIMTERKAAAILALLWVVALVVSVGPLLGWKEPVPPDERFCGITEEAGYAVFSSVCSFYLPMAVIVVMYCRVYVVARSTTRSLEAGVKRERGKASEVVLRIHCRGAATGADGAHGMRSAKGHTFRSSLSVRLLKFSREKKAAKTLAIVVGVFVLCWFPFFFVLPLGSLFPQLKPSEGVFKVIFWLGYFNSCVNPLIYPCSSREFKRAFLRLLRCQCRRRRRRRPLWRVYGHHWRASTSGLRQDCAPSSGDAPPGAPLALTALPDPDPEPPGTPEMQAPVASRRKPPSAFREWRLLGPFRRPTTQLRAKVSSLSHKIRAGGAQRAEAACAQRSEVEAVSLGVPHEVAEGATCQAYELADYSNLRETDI
Text: (§1) Based on the homology of the ligand binding domains, 3 different isoforms of ROR (hRORα, hRORβ and hRORγ) are reported. Small variations in the LBD regions possibly lead to differences in competitive binding between the nuclear receptors of the ROR isoforms (Fig. 1b). Similar to the assessment of RORγ binding assay, TR-FRET binding assays were also used to assess the affinity of PCCR-1 for other ROR isoforms. […] This was reconfirmed in cellular functional assays for the selected isoforms and nuclear receptors using Gal4 DBD with luciferase reporter system from Indigo (PA, USA). […] In addition, both cellular agonist and antagonist effects as well as for enzyme activity were evaluated with a known reference compound for each target, using a radiolabeled method (Eurofins Cerep, France, Table 1).

[2] = test system: IL-17A release in human PBMC; assay: IL-17A release, human PBMC under Th17 polarization conditions; assay type: cell-based; details: human PBMC under Th17 polarization condition, n = 2; read-out: hIL-17 (IL-17A) IC50
Protocol: An increase in the levels of Th17 dependent cytokine in the peripheral blood of COPD patients as compared to the Th1 and Th2 dependent cytokines has been well documented in a subset of COPD patients. A comparative study was performed under TCR activating conditions to evaluate the potencies of PCCR-1 for inhibition across Th1, Th2 and Th17 dependent cytokines using hPBMCs.
Human whole blood from healthy subjects were procured from Clinical Research Unit, Sanpada. Clinical Research Center Glenmark (Plot No. D, 508, Turbhe, TTC Industrial Area, MIDC, Sanpada, Navi Mumbai, Maharashtra 400705, India). PBMCs were isolated using heparinized blood with Ficoll Histopaque. Briefly, the cells were seeded in 96-well plate pre-coated with human anti-CD3 mAb (10 µg/mL), post 30 min of compound treatment cells were stimulated with human anti-CD28 mAb (2 µg/mL). After 72 h of culture, the supernatant was collected for Th1/Th2 cytokines; IFN-γ, IL-2, IL-4 and IL-10 and measured by ELISA. For Th17 polarization assay, the following cytokine cocktail was used: IL-1β (10 ng/ml), IL-23(10 ng/ml), IL-6 (50 ng/ml), TGF-β1 (3 ng/ml), IL-2 (20U/ml) and supernatants were used for measuring IL-17 and IL-22 by ELISA.

[3] = biological target: non RORγ isoforms and other major nuclear receptors; assay: TR-FRET binding assays, other ROR isoforms and major nuclear receptors (summary)
Text: as §1
For selectivity, the ROR isoforms RORα, FXR, LXRα, LXRβ, RXR, RARα were incubated with compound for 60 min at 22 °C followed by detection mix containing respective agonist (All trans retinoic acid for RARα, T0901317 for LXRα, LXRβ, 9-cis Retinoic acid for RXR, GW-4064 for FXR) and coactivator peptide (FD22 for RORα, PGC1α for RXR, RARα, TRAP220 for LXRα, LXRβ, SRC2-2 for FXR) and Tb-anti GST antibody prepared in assay buffer were added into a 384-well white plate. […]

RARα = test system: T2, RARα; assay: TR-FRET selectivity binding assay, RARα
T2 construct: purchased Invitrogen
Text: as §1
(§2) For selectivity, the ROR isoforms RORα, FXR, LXRα, LXRβ, RXR, RARα were incubated with compound for 60 min at 22 °C followed by detection mix containing respective agonist (All trans retinoic acid for RARα, T0901317 for LXRα, LXRβ, 9-cis Retinoic acid for RXR, GW-4064 for FXR) and coactivator peptide (FD22 for RORα, PGC1α for RXR, RARα, TRAP220 for LXRα, LXRβ, SRC2-2 for FXR) and Tb-anti GST antibody prepared in assay buffer were added into a 384-well white plate. Reading taken after overnight incubation and the data analysis done as per the protocol mentioned in RORγt-LBD and co-activator ligand binding assay.

[4] = test system: IL-17F cytokine from human PBMC; assay: IL-17F inhibition, human PBMC; assay type: cell-based; details: hPBMC, read-out: potency, IL-17F levels
[5] = test system: RORγt and IL-17A mRNA in human PBMC; assay: RT-PCR mRNA expression in TCR stimulated human PBMC; assay type: cell-based; details: PCCR-1 treated PBMCs, healthy subjects
Protocol: For RT-PCR from human PBMC, 5X 10^6 PBMCs were seeded in 6well pre-coated human anti-CD3 mAb (10 µg/mL) plate, post 30 min of compound treatment cells were stimulated with human anti-CD28 mAb (2 µg/mL). After 48 h cells were pelleted, washed with PBS and total RNA was extracted using TRI reagent. 3 µg of DNase treated RNA was reverse transcribed using iScript select cDNA synthesis kit (Biorad Hercules, CA, USA) to produce single-stranded cDNA. RT-PCR was performed with an real-time thermal cycler Eppendorf Mastercycler Ep (Eppendorf AG, Hamburg, Germany) using iTaq SYBR Green Supermix with ROX kit (Biorad Hercules, CA, USA) with human IL-17A specific primers: 5’- […]-3’(sense primer) and 5'-[…]-3' (antisense primer) and human RORγt specific primers: 5’-[…]-3’ (sense primer) and 5’-[…]-3’ (antisense primer). RT-PCR reaction was carried out for 40 cycles at 95 °C for 15 s, 60 °C for 15 s and 60 °C for 40 s. Data was interpreted using 2(-∆CT) Livak method of analysis.

NK3 = test system: T3, NK3; assay: Cerep panel, NK3
T3 construct: Eurofins Cerep
Text: as §1

LXRβ = test system: T4, LXRβ; assay: TR-FRET selectivity binding assay, LXRβ
T4 construct: purchased Invitrogen
Text: as §1, §2

`CCn1c(C(C)(C)Oc2ccc(F)cc2F)nc2cc(NC(=O)Cc3ccc(S(=O)(=O)CC)cc3)ccc21` [PCCR-1] was tested, and the IC50 [1] was 766 nM, the IC50 (Alpha 1D) was 550 nM and the IC50 [2] was 66.5 nM. The IC50 ([3]; TR-FRET, read-out: IC50 for the rest of the non RORγ isoforms and other major nuclear receptors) was over 10000 nM, the “fold selectivity over other ROR isoforms / nuclear receptors” value ([3]; relative to RORγ) was > 313.7 fold and > 300 fold and the “% Inhibition RARα” value (RARα; 1 µM) was 0.00%. The “% Inhibition RARα” value (RARα; 10 µM) was 0.00%, the “Fold over hRORγ, RARα” value (RARα; vs RORg IC50 31.87 nM) was over 313.7 fold and the IC50 [4] was 788 nM. The “IL-17A mRNA expression” value [5] was “significantly inhibited”, the “RORγt mRNA expression” value [5] was “downregulation” and the “% inhibition at 10 µM NK3” value (NK3) was 56%. For the same compound, the “% Inhibition LXRβ” value (LXRβ; 1 µM) was 28.11%, the “% Inhibition LXRβ” value (LXRβ; 10 µM) was 46.66% and the “Fold over hRORγ, LXRβ” value (LXRβ; vs RORg IC50 31.87 nM) was over 313.7 fold.
